Literature values in patent US20260174914A1, “METHOD OF TREATING PSMA-EXPRESSING CANCERS” (ENDOCYTE, INC., priority 2020, published 2026).

XOMA 089: fully human monoclonal antibody that specifically binds and neutralizes TGF-beta 1 and 2 ligands
cross-reactivity with cynomolgus monkey TGF-β (cynomolgus monkey TGF-β): cross-reacts | cross-reactivity with rodent TGF-β (rodent TGF-β): cross-reacts
